Measured values reported in PubChem BioAssay AID256 (DTP/NCI, 2004).
“And” between values parts separate entries of the source, which are not always exact repeats. Equal values may be shown once. Toxic doses and inconclusive results are not listed. How the source made its calls: active means survival T/C of 150% or more; inactive means T/C below 125% in these data.

System: CD2F1 mice, L1210 leukemia ip, survival T/C
Test: NCI In Vivo Anticancer Drug Screen. Data for tumor model L1210 Leukemia (intraperitoneal) in CD2F1 (CDF1) mice
Conditions: higher = longer survival
Method in brief: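 Implant tumor; dose compound or vehicle; measure endpoint in both groups; report treated divided by control.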

[1] = endpoint: mean survival time, dose: 12.5 mg/kg/injection, schedule: Q01DX005 (ip), vehicle: distilled water + Tween-80
[2] = endpoint: mean survival time, dose: 25.0 mg/kg/injection, schedule: Q01DX005 (ip), vehicle: distilled water + Tween-80
[3] = endpoint: mean survival time, dose: 50.0 mg/kg/injection, schedule: Q01DX005 (ip), vehicle: distilled water + Tween-80
[4] = endpoint: mean survival time, dose: 100.0 mg/kg/injection, schedule: Q01DX005 (ip), vehicle: distilled water + Tween-80
[5] = endpoint: mean survival time, dose: 200.0 mg/kg/injection, schedule: Q01DX005 (ip), vehicle: distilled water + Tween-80
[6] = endpoint: mean survival time, dose: 50.0 mg/kg/injection, schedule: Q01DX009 (ip), vehicle: saline with Tween-80
[7] = endpoint: mean survival time, dose: 100.0 mg/kg/injection, schedule: Q01DX009 (ip), vehicle: saline with Tween-80
[8] = endpoint: mean survival time, dose: 100.0 mg/kg/injection, schedule: Q04DX003 (ip), vehicle: saline with Tween-80
[9] = endpoint: mean survival time, dose: 200.0 mg/kg/injection, schedule: Q04DX003 (ip), vehicle: saline with Tween-80
[10] = endpoint: mean survival time, dose: 400.0 mg/kg/injection, schedule: Q04DX003 (ip), vehicle: saline with Tween-80
[11] = endpoint: mean survival time, dose: 200.0 mg/kg/injection, schedule: Q01DX009 (ip), vehicle: saline with Tween-80
[12] = endpoint: mean survival time, dose: 400.0 mg/kg/injection, schedule: Q01DX009 (ip), vehicle: saline with Tween-80
[13] = endpoint: mean survival time, dose: 100.0 mg/kg/injection, schedule: Q01DX009 (ip), vehicle: Klucel (hydroxypropylcellulose) (HPC)
[14] = endpoint: mean survival time, dose: 200.0 mg/kg/injection, schedule: Q01DX009 (ip), vehicle: Klucel (hydroxypropylcellulose) (HPC)

Measured: T/C

O=c1[nH]c2ncnc(N=Nc3ncnc4[nH]c(=O)[nH]c34)c2[nH]1
inactive: [1] 98 % of control | [2] 89 % of control | [3] 91 % of control | [4] 94 % of control | [5] 96 % of control

O=C(O)CC(=O)O.[NH-]CC(O)CN=Cc1ccccc1O.[Pt] (configuration not stated)
inactive: endpoint: median survival time, dose: 5.0 mg/kg/injection, schedule: Q04DX003 (ip), vehicle: water 108 % of control | endpoint: median survival time, dose: 10.0 mg/kg/injection, schedule: Q04DX003 (ip), vehicle: water 105 % of control | endpoint: median survival time, dose: 20.0 mg/kg/injection, schedule: Q04DX003 (ip), vehicle: water 108 % of control | endpoint: median survival time, dose: 25.0 mg/kg/injection, schedule: Q04DX003 (ip), vehicle: water 110 % of control | endpoint: median survival time, dose: 40.0 mg/kg/injection, schedule: Q04DX003 (ip), vehicle: water 108 % of control | endpoint: median survival time, dose: 50.0 mg/kg/injection, schedule: Q04DX003 (ip), vehicle: water 110 % of control | endpoint: median survival time, dose: 100.0 mg/kg/injection, schedule: Q04DX003 (ip), vehicle: water 105 % of control | endpoint: median survival time, dose: 200.0 mg/kg/injection, schedule: Q04DX003 (ip), vehicle: water 103 % of control

CCCCCCC#CC(O)CC (configuration not stated)
inactive: [6] 97 % of control | [7] 105 % of control

CN(CC(=O)O)C(=S)c1ccccc1
inactive: [8] 98 % of control | [9] 104 % of control | [10] 95 % of control

Cc1ccc(NC(=O)OCCOc2ccccc2Cl)cc1[N+](=O)[O-]
inactive: endpoint: mean survival time, dose: 12.5 mg/kg/injection, schedule: Q01DX009 (ip), vehicle: saline with Tween-80 98 % of control | endpoint: mean survival time, dose: 25.0 mg/kg/injection, schedule: Q01DX009 (ip), vehicle: saline with Tween-80 103 % of control | [6] 88 % of control and 103 % of control

C[n+]1csc2ccccc21
inactive: endpoint: mean survival time, dose: 100.0 mg/kg/injection, schedule: Q01DX001 (ip), vehicle: saline with Tween-80 104 % of control | [7] 105 % of control | [8] 103 % of control | endpoint: mean survival time, dose: 200.0 mg/kg/injection, schedule: Q01DX001 (ip), vehicle: saline with Tween-80 98 % of control | [11] 105 % of control | [9] 103 % of control | endpoint: mean survival time, dose: 400.0 mg/kg/injection, schedule: Q01DX001 (ip), vehicle: saline with Tween-80 104 % of control | [12] 103 % of control | [10] 105 % of control

COc1ccc(CSc2nn(C3OC(COC(=O)c4ccccc4)C(OC(=O)c4ccccc4)C3OC(=O)c3ccccc3)c(=O)[nH]c2=S)cc1 (configuration not stated)
inactive: [1] 104 % of control | [2] 101 % of control | [3] 93 % of control | [4] 93 % of control | [5] 90 % of control

CC(C)C(C(O)c1ccccc1)[N+](=O)[O-] (configuration not stated)
inactive: endpoint: mean survival time, dose: 100.0 mg/kg/injection, schedule: Q01DX009 (ip), vehicle: saline sonified 102 % of control | [8] 102 % of control | endpoint: mean survival time, dose: 200.0 mg/kg/injection, schedule: Q01DX009 (ip), vehicle: saline sonified 102 % of control | [9] 96 % of control | endpoint: mean survival time, dose: 400.0 mg/kg/injection, schedule: Q01DX009 (ip), vehicle: saline sonified 100 % of control | [10] 100 % of control

CCOc1c(Cl)cc(Cl)cc1C(c1ccccc1S(=O)(=O)O)c1cc(Cl)cc(Cl)c1OCC
inactive: endpoint: mean survival time, dose: 6.25 mg/kg/injection, schedule: Q01DX009 (ip), vehicle: saline sonified 97 % of control | endpoint: mean survival time, dose: 6.25 mg/kg/injection, schedule: Q04DX003 (ip), vehicle: saline sonified 97 % of control | endpoint: mean survival time, dose: 12.5 mg/kg/injection, schedule: Q01DX009 (ip), vehicle: saline sonified 96 % of control | endpoint: mean survival time, dose: 12.5 mg/kg/injection, schedule: Q04DX003 (ip), vehicle: saline sonified 103 % of control | endpoint: mean survival time, dose: 25.0 mg/kg/injection, schedule: Q01DX009 (ip), vehicle: saline sonified 96 % of control | endpoint: mean survival time, dose: 25.0 mg/kg/injection, schedule: Q04DX003 (ip), vehicle: saline sonified 95 % of control

O=C(C(=O)c1ccc(Cl)c(Cl)c1)c1ccc(Cl)c(Cl)c1
inactive: [13] 90 % of control | [14] 91 % of control | endpoint: mean survival time, dose: 400.0 mg/kg/injection, schedule: Q01DX009 (ip), vehicle: Klucel (hydroxypropylcellulose) (HPC) 96 % of control

CCOc1ccc2c(c1)c(CC(=O)O)c(C)n2C
inactive: endpoint: mean survival time, dose: 100.0 mg/kg/injection, schedule: Q01DX001 (ip), vehicle: other 95 % of control | endpoint: mean survival time, dose: 200.0 mg/kg/injection, schedule: Q01DX001 (ip), vehicle: other 98 % of control | endpoint: mean survival time, dose: 400.0 mg/kg/injection, schedule: Q01DX001 (ip), vehicle: other 98 % of control

O=C1c2ccccc2C(=O)N1C1C=CC=CC=C1
inactive: [7] 95 % of control | [8] 104 % of control | [11] 93 % of control | [9] 97 % of control | [12] 96 % of control | [10] 97 % of control

COc1ccc2c(c1OC(C)=O)-c1cc(O)cc3c1C(C2)N(C(=O)CN(CCCl)CCCl)CC3 (configuration not stated)
inactive: endpoint: mean survival time, dose: 6.25 mg/kg/injection, schedule: Q04DX003 (ip), vehicle: DMSO 98 % of control | endpoint: mean survival time, dose: 12.5 mg/kg/injection, schedule: Q04DX003 (ip), vehicle: DMSO 91 % of control | endpoint: mean survival time, dose: 25.0 mg/kg/injection, schedule: Q04DX003 (ip), vehicle: DMSO 100 % of control | endpoint: mean survival time, dose: 50.0 mg/kg/injection, schedule: Q04DX003 (ip), vehicle: DMSO 102 % of control

CN(C)c1ccc(N=C2CC(=Nc3ccc(N(C)C)cc3)c3ccccc3C2=O)cc1
inactive: endpoint: mean survival time, dose: 100.0 mg/kg/injection, schedule: Q04DX003 (ip), vehicle: saline 104 % of control | endpoint: mean survival time, dose: 200.0 mg/kg/injection, schedule: Q04DX003 (ip), vehicle: saline 96 % of control | endpoint: mean survival time, dose: 400.0 mg/kg/injection, schedule: Q04DX003 (ip), vehicle: saline 101 % of control

[Cl][Pt+2][Cl].[NH-]c1cc(Cl)c(Cl)c(Cl)c1[NH-]
inactive: endpoint: mean survival time, dose: 2.5 mg/kg/injection, schedule: Q01DX009 (ip), vehicle: saline with Tween-80 105 % of control | endpoint: mean survival time, dose: 5.0 mg/kg/injection, schedule: Q01DX009 (ip), vehicle: saline with Tween-80 100 % of control | endpoint: mean survival time, dose: 10.0 mg/kg/injection, schedule: Q01DX009 (ip), vehicle: saline with Tween-80 100 % of control | endpoint: mean survival time, dose: 20.0 mg/kg/injection, schedule: Q01DX009 (ip), vehicle: saline with Tween-80 107 % of control | endpoint: mean survival time, dose: 40.0 mg/kg/injection, schedule: Q01DX009 (ip), vehicle: saline with Tween-80 94 % of control

CC1=CC(=O)C(CCC(=O)O)C(C)(C)C1 (configuration not stated)
inactive: endpoint: mean survival time, dose: 100.0 mg/kg/injection, schedule: Q04DX002 (ip), vehicle: saline with Tween-80 91 % of control | endpoint: mean survival time, dose: 200.0 mg/kg/injection, schedule: Q04DX002 (ip), vehicle: saline with Tween-80 94 % of control | endpoint: mean survival time, dose: 400.0 mg/kg/injection, schedule: Q04DX002 (ip), vehicle: saline with Tween-80 94 % of control

CCOC(=O)C1(C(=O)OCC)CCC(O)N1C(=O)c1cc2c(cc1[N+](=O)[O-])OCO2 (configuration not stated)
inactive: endpoint: mean survival time, dose: 50.0 mg/kg/injection, schedule: Q01DX009 (ip), vehicle: Klucel (hydroxypropylcellulose) (HPC) 97 % of control | [13] 101 % of control | [14] 101 % of control
